Test results as given in PubChem BioAssay AID2060512 (Molecular Pharmacology Branch, DTP, NCI, 2025).

Test system: 186277-243-T-J2-PDC complex spheroid viability
Experiment: Anticancer human tumor 186277-243-T-J2-PDC patient-derived colon adenocarcinoma cell line growth inhibition [GQUAD]
Details: for IC50: curve of first compound; for viability, T/C: stronger effect = lower value; active = viability on the fitted dose curve at most 10% of control; inactive = the rest
How it was run: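 Tumor cells were grown as complex spheroids with HUVEC endothelial cells and mesenchymal stem cells as stroma. G-quadruplex stabilizers were combined with targeted agents over half-log dilutions from near the clinical Cmax, or from 10 microM.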

[1] = second compound 0.0316 µM, first compound 0.0316 µM
[2] = second compound 0.0316 µM, first compound 0.1 µM
[3] = second compound 0.0316 µM, first compound 0.316 µM
[4] = second compound 0.0316 µM, first compound 1 µM
[5] = second compound 0.0316 µM, first compound 3.16 µM
[6] = second compound 0.0316 µM, first compound 10 µM
[7] = second compound 0.1 µM, first compound 0.0316 µM
[8] = second compound 0.1 µM, first compound 0.1 µM
[9] = second compound 0.1 µM, first compound 0.316 µM
[10] = second compound 0.1 µM, first compound 1 µM
[11] = second compound 0.1 µM, first compound 3.16 µM
[12] = second compound 0.1 µM, first compound 10 µM
[13] = second compound 0.316 µM, first compound 0.0316 µM
[14] = second compound 0.316 µM, first compound 0.1 µM
[15] = second compound 0.316 µM, first compound 0.316 µM
[16] = second compound 0.316 µM, first compound 1 µM
[17] = second compound 0.316 µM, first compound 3.16 µM
[18] = second compound 0.316 µM, first compound 10 µM
[19] = second compound 1 µM, first compound 0.0316 µM
[20] = second compound 1 µM, first compound 0.1 µM
[21] = second compound 1 µM, first compound 0.316 µM
[22] = second compound 1 µM, first compound 1 µM
[23] = second compound 1 µM, first compound 3.16 µM
[24] = second compound 1 µM, first compound 10 µM
[25] = second compound 3.16 µM, first compound 0.0316 µM
[26] = second compound 3.16 µM, first compound 0.1 µM
[27] = second compound 3.16 µM, first compound 0.316 µM
[28] = second compound 3.16 µM, first compound 1 µM
[29] = second compound 3.16 µM, first compound 3.16 µM
[30] = second compound 3.16 µM, first compound 10 µM
[31] = second compound 10 µM, first compound 0.0316 µM
[32] = second compound 10 µM, first compound 0.1 µM
[33] = second compound 10 µM, first compound 0.316 µM
[34] = second compound 10 µM, first compound 1 µM
[35] = second compound 10 µM, first compound 3.16 µM
[36] = second compound 10 µM, first compound 10 µM
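Also: spheroids exposed to drugs for 7 days.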
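For viability, T/C in this document: 100% = DMSO vehicle control viability.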

CC1COCCN1c1cc(-c2ccnn2C)c2ccnc(-c3ccn[nH]3)c2n1 (centres undefined) + CN(C)c1ccc(Nc2c3ccc(NC(=O)CCN4CCCC4)cc3nc3cc(NC(=O)CCN4CCCC4)ccc23)cc1
32.5 nM: IC50 (second compound 10 µM)
50.9 nM: IC50 (second compound 0.316 µM)
46.4 nM: IC50 (second compound 0.1 µM)
< 31.6 nM: IC50 (second compound 1 µM)
active: viability, T/C [3] 6.8% | viability, T/C [4] 5.06% | viability, T/C [5] 4.62% | viability, T/C [6] 5.21% | viability, T/C [9] 6.89% | viability, T/C [10] 4.08% | viability, T/C [11] 5.19% | viability, T/C [12] 5.02% | viability, T/C [15] 5.74% | viability, T/C [16] 4.54% | viability, T/C [17] 5.22% | viability, T/C [18] 5.43% | viability, T/C [21] 6.08% | viability, T/C [22] 4.26% | viability, T/C [23] 5.15% | viability, T/C [24] 4.9% | viability, T/C [27] 6.06% | viability, T/C [28] 4.8% | viability, T/C [29] 4.59% | viability, T/C [30] 4.41% | viability, T/C [33] 5.91% | viability, T/C [34] 4.1% | viability, T/C [35] 4.19% | viability, T/C [36] 4.01%
40.8 nM: IC50 (second compound 3.16 µM)
inactive: viability, T/C [1] 77.7% | viability, T/C [2] 12.4% | viability, T/C [7] 68.3% | viability, T/C [8] 13.6% | viability, T/C [13] 76.5% | viability, T/C [14] 12.4% | viability, T/C [19] 49.3% | viability, T/C [20] 12.6% | viability, T/C [25] 60.6% | viability, T/C [26] 13.1% | viability, T/C [31] 51% | viability, T/C [32] 12.1%
51.5 nM: IC50 (second compound 0.0316 µM)

COc1cccc2c1C(=O)c1c(O)c3c(c(O)c1C2=O)CC(O)(C(=O)CO)CC3OC1CC(N)C(O)C(C)O1 (centres undefined) + Cc1[nH]c2ccc(F)cc2c1-c1nc2c3cccnc3c3ncccc3c2[nH]1
667 nM: IC50 (second compound 10 µM)
inactive: viability, T/C [1] 104% | viability, T/C [2] 99.2% | viability, T/C [3] 95.9% | viability, T/C [4] 28.9% | viability, T/C [7] 117% | viability, T/C [8] 88.9% | viability, T/C [9] 70.5% | viability, T/C [10] 29.5% | viability, T/C [13] 96.1% | viability, T/C [14] 116% | viability, T/C [15] 81.4% | viability, T/C [16] 34.9% | viability, T/C [19] 104% | viability, T/C [20] 96.3% | viability, T/C [21] 85.5% | viability, T/C [22] 32% | viability, T/C [25] 84.7% | viability, T/C [26] 92.1% | viability, T/C [27] 75% | viability, T/C [28] 32.4% | viability, T/C [31] 90.4% | viability, T/C [32] 98% | viability, T/C [33] 81.5% | viability, T/C [34] 32.8%
696 nM: IC50 (second compound 0.0316 µM)
686 nM: IC50 (second compound 0.316 µM)
674 nM: IC50 (second compound 1 µM)
623 nM: IC50 (second compound 3.16 µM)
active: viability, T/C [5] 5.65% | viability, T/C [6] 0.19% | viability, T/C [11] 0.54% | viability, T/C [12] 0.13% | viability, T/C [17] 0.6% | viability, T/C [18] 0.26% | viability, T/C [23] 0.77% | viability, T/C [24] 0.15% | viability, T/C [29] 1.37% | viability, T/C [30] 0.86% | viability, T/C [35] 1.17% | viability, T/C [36] 0.68%
511 nM: IC50 (second compound 0.1 µM)
